target: human A2A adenosine receptor (Homo sapiens (Human), UniProt P29274); assay: A2A binding affinity using radioligand binding, Method (A); conditions: Method (A): filtration radioligand binding, [3H] SCH58261, membranes expressing human A2A
Excerpt: Method (A) describes the procedure used to measure A2A binding affinity using radioligand binding. Method (B) describes the procedure used to measure A2A binding affinity using SPA technology. The method used to measure A2B binding affinity is also described below. The method used to determine the A2A IC50 value reported for each compound in the table is indicated next to the reported value. The A2B IC50 value measured using the A2B binding affinity assay is shown in the table next to the compound under the corresponding A2A value.
The A2A receptor affinity binding assay measured the amount of binding of a tritiated ligand with high affinity for the A2A adenosine receptor to membranes made from HEK293 or CHO cells recombinantly expressing the human A2A adenosine receptor, in the presence of varying concentrations of a compound of the invention. The data were generated using either filtration binding or a homogenous scintillation proximity assay (SPA).
Method (A): Measurement of A2A Binding Affinity Using Radioligand Binding
148 μL (5 μg/mL) membranes (Perkin Elmer, Cat. No. RBHA2aM400UA) and 2 μL compounds of the invention to be tested (test compound) were transferred to individual wells of a 96-well polypropylene assay plate and incubated for 15 to 30 min at room temperature. [^3H] SCH58261 ((7-(2-phenylethyl)-5-amino-2-(2-furyl)-pyrazolo-[4,3-e]-1,2,4-triazolo[1,5-c]pyrimidine)) was diluted in assay buffer (50 mM Tris pH 7.4, 10 mM MgCl2, 0.005% Tween20) to a concentration of 4 nM and 50 μL transferred to each well of the assay plate. To define total and non-specific binding, wells containing 1% DMSO and 1 μM ZM241385 (Tocris Bioscience, Cat. No. 1036) respectively, were also included. The assay plate was incubated at room temperature for 60 min with agitation. Using a FilterMate Harvester® (Perkin Elmer), the contents of the assay plate were filtered through a UniFilter-96® PEI coated plate (Perkin Elmer Cat. No. 6005274 or 6005277). Filtering was achieved by aspirating the contents of the assay plate for 5 sec, then washing and aspirating the contents three times with ice-cooled wash buffer (50 mM Tris-HCl pH 7.4, 150 mM NaCl) and allowing the vacuum manifold to dry the plate for 30 sec. The filter plate was incubated for at least 1 h at 55° C. and allowed to dry. The bottom of the filter plate was sealed with backing tape. 40 μL Ultima Gold™ (Perkin Elmer, Cat. No. 6013329) was added to each well of the filter plate and the top of the plate was sealed with TopSeal-A PLUS® clear plate seal (Perkin Elmer, Cat. No. 6050185). The plate was incubated for at least 20 min, and then the amount of radioactivity remaining in each well was determined using a TopCount® (Perkin Elmer) scintillation counter. After normalization to total and non-specific binding, the percent effect at each compound concentration was calculated. The plot of percent effect versus the log of compound concentration was analyzed electronically using a 4-parameter logistic fit based on the Levenberg-Marquardt algorithm to generate IC50 values.

Chain of human A2A adenosine receptor (P29274 whole entry): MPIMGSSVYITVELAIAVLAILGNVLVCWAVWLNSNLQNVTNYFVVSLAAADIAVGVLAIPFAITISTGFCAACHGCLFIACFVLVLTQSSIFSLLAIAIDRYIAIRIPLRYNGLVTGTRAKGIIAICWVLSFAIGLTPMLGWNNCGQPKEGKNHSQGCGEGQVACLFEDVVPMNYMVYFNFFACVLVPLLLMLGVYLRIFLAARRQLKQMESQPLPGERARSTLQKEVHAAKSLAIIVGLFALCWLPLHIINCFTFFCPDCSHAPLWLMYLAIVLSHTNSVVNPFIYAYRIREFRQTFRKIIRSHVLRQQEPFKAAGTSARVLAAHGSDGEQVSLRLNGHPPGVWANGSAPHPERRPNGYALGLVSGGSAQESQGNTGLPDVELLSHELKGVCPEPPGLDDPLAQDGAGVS

SMILES | IC50
CC(C)(N)c1ccc([C@@H]2C[C@H]2Cc2nc3c4cc(F)cc(F)c4nc(N)n3n2)cc1 [Example 8.3A, 2-(((1S,2R)-2-(4-(2-aminopropan-2-yl)phenyl)cyclopropyl)methyl)-7,9-difluoro-[1,2,4]triazolo[1,5-c]quinazolin-5-amine] | 38.1 nM
CC(C)(N)c1ccc([C@H]2C[C@@H]2Cc2nc3c4cc(F)cc(F)c4nc(N)n3n2)cc1 [Example 8.3B, 2-(((1R,2S)-2-(4-(2-aminopropan-2-yl)phenyl)cyclopropyl)methyl)-7,9-difluoro-[1,2,4]triazolo[1,5-c]quinazolin-5-amine] | 25.4 nM
COc1cccc2c1nc(N)n1nc(CCOc3ccc(C(O)(C(F)(F)F)C(F)(F)F)cc3)nc21 [Example 9.1, 2-(4-(2-(5-amino-7-methoxy-[1,2,4]triazolo[1,5-c]quinazolin-2-yl)ethoxy)phenyl)-1,1,1,3,3,3-hexafluoropropan-2-ol] | 1.7 nM
COc1cccc2c1nc(N)n1nc(CCS(=O)(=O)C3CC3)nc21 [Example 13.3, 2-(2-(cyclopropylsulfonyl)ethyl)-7-methoxy-[1,2,4]triazolo[1,5-c]quinazolin-5-amine] | 1.6 nM
COc1ccc2c(c1)nc(N)n1nc(CCS(=O)(=O)C3CC3)nc21 [Example 13.6, 2-(2-(cyclopropylsulfonyl)ethyl)-8-methoxy-[1,2,4]triazolo[1,5-c]quinazolin-5-amine] | 8.2 nM
CS(=O)(=O)CCCc1nc2c3cc(F)cc(F)c3nc(N)n2n1 [Example 13.19, 7,9-difluoro-2-(3-(methylsulfonyl)propyl)-[1,2,4]triazolo[1,5-c]quinazolin-5-amine] | 21.8 nM
Nc1nc2c(F)cc(F)cc2c2nc(CCCS(=O)(=O)C3CC3)nn12 [Example 13.20, 2-(3-(cyclopropylsulfonyl)propyl)-7,9-difluoro-[1,2,4]triazolo[1,5-c]quinazolin-5-amine] | 34.2 nM
COc1ccc(C2=COCCC2)c2c1nc(N)n1nc(CO)nc21 [Example 15.4, (5-amino-10-(3,4-dihydro-2H-pyran-5-yl)-7-methoxy-[1,2,4]triazolo[1,5-c]quinazolin-2-yl)methanol] | 2.7 nM

Results, then the compound that gave them:

IC50 | SMILES
14.9 nM | CCOC(=O)CCCn1cc(Cc2nc3c4cc(F)cc(OC)c4nc(N)n3n2)cn1 [Example 16.3, ethyl 4-(4-((5-amino-9-fluoro-7-methoxy-[1,2,4]triazolo[1,5-c]quinazolin-2-yl)methyl)-1H-pyrazol-1-yl)butanoate]
15.3 nM | COc1cc(F)cc2c1nc(N)n1nc(Cc3cnn(CCCC(C)(C)O)c3)nc21 [Example 16.4, 5-(4-((5-amino-9-fluoro-7-methoxy-[1,2,4]triazolo[1,5-c]quinazolin-2-yl)methyl)-1H-pyrazol-1-yl)-2-methylpentan-2-ol]
43.4 nM | COc1cc(F)cc2c1nc(N)n1nc(Cc3cnn(CCC(C)(C)O)c3)nc21 [Example 16.5, 4-(4-((5-amino-9-fluoro-7-methoxy-[1,2,4]triazolo[1,5-c]-quinazolin-2-yl)methyl)-1H-pyrazol-1-yl)-2-methylbutan-2-ol]

— patent US20240076297A1, “ADENOSINE A2A AND A2B RECEPTOR DUAL ANTAGONISTS FOR IMMUNO-ONCOLOGY” (Merck Sharp & Dohme LLC, priority 2020, published 2024)
